# Test results published in patent US20100280024A1, “RENIN INHIBITORS” (priority 2007, published 2010).
# Where a name gives a salt, the structure may show the parent alone.
# Target: T1, Renin (Homo sapiens, UniProt P00797)
# T1 sequence (P00797 67-406): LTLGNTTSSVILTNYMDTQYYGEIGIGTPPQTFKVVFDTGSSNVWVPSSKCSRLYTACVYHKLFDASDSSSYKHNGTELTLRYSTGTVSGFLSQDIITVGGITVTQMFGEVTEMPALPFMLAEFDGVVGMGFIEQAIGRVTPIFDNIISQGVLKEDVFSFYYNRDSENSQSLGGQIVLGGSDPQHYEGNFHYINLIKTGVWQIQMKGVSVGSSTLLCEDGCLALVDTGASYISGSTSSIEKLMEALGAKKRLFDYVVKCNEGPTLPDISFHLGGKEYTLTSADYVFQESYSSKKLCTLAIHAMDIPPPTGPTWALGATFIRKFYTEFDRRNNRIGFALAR
# Assay: In-vitro renin inhibition assay (modified Cayman renin inhibitor screening assay, fluorescence)
# Format: biochemical
# Parameters: purchased Cayman 10006270
# Conditions: 37° C., 30 mins; for inhibition at 0.1 µM: read-out: Renin inhibition (percent inhibition of renin activity) at 0.1 μM; for inhibition at 1 µM: compound concentration 1 μM, read-out: Renin inhibition (percent inhibition of renin activity) at 1 μM
# Procedure: In-Vitro Renin Inhibition Assay
# The enzymatic in vitro assay was performed in 96 well polypropylene plate (Nunc), using a modified Renin inhibitor screening assay protocol (Cayman, cat no: 10006270). The reaction system comprised assay buffer containing 50 mM Tris-HCL, pH=8.0 & 100 mM sodium chloride, human recombinant renin (1:20 diluted with fixed activity), synthetic renin substrates (9.5 μM) and different concentrations of renin inhibitors in DMSO in a total reaction system of 100 μl. The entire incubation mixture were incubated at 37° C. for 30 mins and the fluorescence was read in kinetic mode using excitation wavelengths of 335-345 nm and emission wavelengths of 485-510 nm. Enzyme inhibition was determined by percent inhibition of renin activity.
compound,measurement,setting,value
"Cc1cc(Cl)c(OCCOc2ccc(CC(CN)C(=O)N3CCCc4ccccc43)cc2)c(Cl)c1 (stereo not shown) [Example 2, 3-Amino-2-{4-[2-(2,6-dichloro-4-methyl-phenoxy)-ethoxy]-benzyl}-1-(3,4-dihydro-2H-quinolin-1-yl)-propan-1-one]",inhibition at 0.1 µM,compound concentration 0.1 μM,90.5%
same,inhibition at 1 µM,,97.3%
"Cc1cc(Cl)c(OCCOc2ccc(CC(CN)C(=O)N3CCOc4ccccc43)cc2)c(Cl)c1 (stereo not shown) [Example 4, 3-Amino-2-{4-[2-(2,6-dichloro-4-methyl-phenoxy)-ethoxy]-benzyl}-1-(2,3-dihydro-benzo[1,4]oxazin-4-yl)-propan-1-one]",inhibition at 1 µM,,73.5%
"Cc1cc(Cl)c(OCCOc2ccc(CC(CN)C(=O)N3CCCc4cc(Cl)ccc43)cc2)c(Cl)c1 (stereo not shown) [Example 5, 3-Amino-1-(6-chloro-3,4-dihydro-2H-quinolin-1-yl)-2-{4-[2-(2,6-dichloro-4-methyl-phenoxy)-ethoxy]-benzyl}-propan-1-one]",inhibition at 1 µM,,79.6%
"Cc1cc(Cl)c(OCCOc2ccc(CC(CN)C(=O)N3CCCc4cc(Br)ccc43)cc2)c(Cl)c1 (stereo not shown) [Example 6, 3-Amino-1-(6-bromo-3,4-dihydro-2H-quinolin-1-yl)-2-{4-[2-(2,6-dichloro-4-methyl-phenoxy)-ethoxy]-benzyl}-propan-1-one]",inhibition at 1 µM,,86.5%
"Cc1cc(Cl)c(OCCOc2ccc(CC(CN)C(=O)N3CCCc4ccc(C)c(C)c43)cc2)c(Cl)c1 (stereo not shown) [Example 9, 3-Amino-2-{4-[2-(2,6-dichloro-4-methyl-phenoxy)-ethoxy]-benzyl}-1-(7,8-dimethyl-3,4-dihydro-2H-quinolin-1-yl)-propan-1-one]",inhibition at 0.1 µM,compound concentration 0.1 μM,80.5%
same,inhibition at 1 µM,,98.1%
"Cc1cc(Cl)c(OCCOc2ccc(CC(CN)C(=O)N3CCCc4cccc(F)c43)cc2)c(Cl)c1 (stereo not shown) [Example 11, 3-Amino-2-{4-[2-(2,6-dichloro-4-methyl-phenoxy)-ethoxy]-benzyl}-1-(8-fluoro-3,4-dihydro-2H-quinolin-1-yl)-propan-1-one]",inhibition at 1 µM,,68.5%
"COc1ccc2c(c1)CCCN2C(=O)C(CN)Cc1ccc(OCCOc2c(Cl)cc(C)cc2Cl)cc1 (stereo not shown) [Example 13, 3-Amino-2-{4-[2-(2,6-dichloro-4-methyl-phenoxy)-ethoxy]-benzyl}-1-(6-methoxy-3,4-dihydro-2H-quinolin-1-yl)-propan-1-one]",inhibition at 0.1 µM,compound concentration 0.1 μM,32.1%
same,inhibition at 1 µM,,96.5%
"Cc1cc(Cl)c(OCCOc2ccc(CC(CN)C(=O)N3CCCc4cc(Cl)cc(Cl)c43)cc2)c(Cl)c1 (stereo not shown) [Example 14, 3-Amino-1-(6,8-dichloro-3,4-dihydro-2H-quinolin-1-yl)-2-{4-[2-(2,6-dichloro-4-methyl-phenoxy)-ethoxy]-benzyl}-propan-1-one]",inhibition at 0.1 µM,compound concentration 0.1 μM,41.8%
same,inhibition at 1 µM,,87%
"Cc1cc(Cl)c(OCCOc2ccc(CC(CN)C(=O)N3CCCc4cc(C(F)(F)F)ccc43)cc2)c(Cl)c1 (stereo not shown) [Example 15, 3-Amino-2-{4-[2-(2,6-dichloro-4-methyl-phenoxy)-ethoxy]-benzyl}-1-(6-trifluoromethyl-3,4-dihydro-2H -quinolin-1-yl)-propan-1-one]",inhibition at 0.1 µM,compound concentration 0.1 μM,99.2%
same,inhibition at 1 µM,,98.7%
"Cc1cc(Cl)c(OCCOc2ccc(CC(CN)C(=O)N3CCCc4cc(C)ccc43)cc2)c(Cl)c1 (stereo not shown) [Example 16, 3-Amino-2-{4-[2-(2,6-dichloro-4-methyl-phenoxy)-ethoxy]-benzyl}-1-(6-methyl-3,4-dihydro-2H-quinolin-1-yl)-propan-1-one]",inhibition at 0.1 µM,compound concentration 0.1 μM,52.6%
same,inhibition at 1 µM,,87.4%
"COc1cc2c(cc1OC)CN(C(=O)C(CN)Cc1ccc(OCCOc3c(Cl)cc(C)cc3Cl)cc1)CC2 (stereo not shown) [Example 17, 2-Aminomethyl-3-{4-[2-(2,6-dichloro-4-methyl-phenoxy)-ethoxy]-phenyl}-1-(6,7-dimethoxy-3,4-dihydro-1H-isoquinolin-2-yl)-propan-1-one]",inhibition at 1 µM,,53.6%
"Cc1cc(Cl)c(OCCOc2ccc(CC(CN)C(=O)N3CCC(C)CC3)cc2)c(Cl)c1 (stereo not shown) [Example 18, 3-Amino-2-{4-[2-(2,6-dichloro-4-methyl-phenoxy)-ethoxy]-benzyl}-1-(4-methyl-piperidin-1-yl)-propan-1-one]",inhibition at 1 µM,,65.8%
"Cc1cc(Cl)c(OCCOc2ccc(CC(CN)C(=O)N3CCCc4cc(F)ccc43)cc2)c(Cl)c1 (stereo not shown) [Example 20, 3-Amino-2-{4-[2-(2,6-dichloro-4-methyl-phenoxy)-ethoxy]-benzyl}-1-(6-fluoro-3,4-dihydro-2H-quinolin-1-yl)-propan-1-one]",inhibition at 0.1 µM,compound concentration 0.1 μM,68%
same,inhibition at 1 µM,,96.1%
"Cc1cc(Cl)c(OCCOc2ccc(CC(CN)C(=O)N3CCCC3)cc2)c(Cl)c1 (stereo not shown) [Example 23, 3-Amino-2-{4-[2-(2,6-dichloro-4-methyl-phenoxy)-ethoxy]-benzyl}-1-pyrrolidin-1-yl-propan-1-one]",inhibition at 0.1 µM,compound concentration 0.1 μM,59.5%
same,inhibition at 1 µM,,81.1%
"Cc1cc(Cl)c(OCCOc2ccc(CC(CN)C(=O)N3CCOCC3)cc2)c(Cl)c1 (stereo not shown) [Example 25, 3-Amino-2-{4-[2-(2,6-dichloro-4-methyl-phenoxy)-ethoxy]-benzyl}-1-morpholin-4-yl-propan-1-one hydrochloride]",inhibition at 0.1 µM,compound concentration 0.1 μM,45.1%
same,inhibition at 1 µM,,76.4%
"Cc1cc(Cl)c(OCCOc2ccc(CC(CN)C(=O)N3CCCc4cc(OCC(F)(F)F)ccc43)cc2)c(Cl)c1 (stereo not shown) [Example 28, 3-Amino-2-{4-[2-(2,6-dichloro-4-methyl-phenoxy)-ethoxy]-benzyl}-1-[6-(2,2,2-trifluoro-ethoxy)-3,4-dihydro-2H-quinolin-1-yl]-propan-1-one hydrochloride]",inhibition at 0.1 µM,compound concentration 0.1 μM,73.8%
"COC(=O)[C@H]1CCCN1C(=O)C(CN)Cc1ccc(OCCOc2c(Cl)cc(C)cc2Cl)cc1.Cl (stereo partly drawn) [Example 29, D-(2-Aminomethyl-3-{4-[2-(2,6-dichloro-4-methyl-phenoxy)-ethoxy]-phenyl}-propionyl)-pyrrolidine-2-carboxylic acid methyl ester hydrochloride]",Renin inhibition (percent inhibition of renin activity) at 0.1 μM,compound concentration 0.1 μM,90.3
"COC1CCCN(C(=O)C(CN)Cc2ccc(OCCOc3c(Cl)cc(C)cc3Cl)cc2)C1 (stereo not shown) [Example 30, 2-Aminomethyl-3-{4-[2-(2,6-dichloro-4-methyl-phenoxy)-ethoxy]-phenyl}-1-(3-methoxy-piperidin-1-yl)-propan-1-one hydrochloride]",inhibition at 0.1 µM,compound concentration 0.1 μM,92.8%
same,inhibition at 1 µM,,92.9%
"Cc1ccc(OCCOc2ccc(CC(CN)C(=O)N3CCCc4cc(C(F)(F)F)ccc43)cc2)c(Cl)c1 (stereo not shown) [Example 33, 3-Amino-2-{4-[2-(2-chloro-4-methyl-phenoxy)-ethoxy]-benzyl}-1-(6-trifluoromethyl-3,4-dihydro-2H-quinolin-1-yl)-propan-1-one]",inhibition at 0.1 µM,compound concentration 0.1 μM,92.9%
same,inhibition at 1 µM,,89.2%
"NCC(Cc1ccc(OCCOc2c(F)cccc2F)cc1)C(=O)N1CCCc2cc(C(F)(F)F)ccc21 (stereo not shown) [Example 34, 3-Amino-2-{4-[2-(2,6-difluoro-phenoxy)-ethoxy]-benzyl}-1-(6-trifluoromethyl-3,4-dihydro-2H-quinolin-1-yl)-propan-1-one hydrochloride]",inhibition at 0.1 µM,compound concentration 0.1 μM,31.2%
"NCC(Cc1ccc(OCCOc2c(F)cccc2F)cc1)C(=O)N1CCCc2cc(F)ccc21 (stereo not shown) [Example 35, 3-Amino-2-{4-[2-(2,6-difluoro-phenoxy)-ethoxy]-benzyl}-1-(6-fluoro-3,4-dihydro-2H-quinolin-1-yl)-propan-1-one hydrochloride]",inhibition at 0.1 µM,compound concentration 0.1 μM,26.3%
"NCC(Cc1ccc(OCCOc2ccc(F)cc2F)cc1)C(=O)N1CCCc2cc(C(F)(F)F)ccc21 (stereo not shown) [Example 36, 3-Amino-2-{4-[2-(2,4-difluoro-phenoxy)-ethoxy]-benzyl}-1-(6-trifluoromethyl-3,4-dihydro-2H-quinolin-1-yl)-propan-1-one hydrochloride]",inhibition at 0.1 µM,compound concentration 0.1 μM,45%
"NCC(Cc1ccc(OCCOc2ccc(Cl)cc2Cl)cc1)C(=O)N1CCCc2cc(F)ccc21 (stereo not shown) [Example 37, 3-Amino-2-{4-[2-(2,4-dichloro-phenoxy)-ethoxy]-benzyl}-1-(6-fluoro-3,4-dihydro-2H-quinolin-1-yl)-propan-1-one hydrochloride]",inhibition at 0.1 µM,compound concentration 0.1 μM,36.4%
"NCC(Cc1ccc(OCCOc2ccc(Cl)cc2Cl)cc1)C(=O)N1CCCc2cc(C(F)(F)F)ccc21 (stereo not shown) [Example 38, 3-Amino-2-{4-[2-(2,4-dichloro-phenoxy)-ethoxy]-benzyl}-1-(6-trifluoromethyl-3,4-dihydro-2H-quinolin-1-yl)-propan-1-one hydrochloride chloride]",inhibition at 0.1 µM,compound concentration 0.1 μM,35.4%
"NCC(Cc1ccc(OCCOc2ccc(Cl)cc2F)cc1)C(=O)N1CCCc2cc(F)ccc21 (stereo not shown) [Example 39, 3-Amino-2-{4-[2-(4-chloro-2-fluoro-phenoxy)-ethoxy]-benzyl}-1-(6-fluoro-3,4-dihydro-2H-quinolin-1-yl)-propan-1-one hydrochloride]",inhibition at 0.1 µM,compound concentration 0.1 μM,36.3%
"NCC(Cc1ccc(OCCOc2ccc(Cl)cc2F)cc1)C(=O)N1CCCc2cc(C(F)(F)F)ccc21 (stereo not shown) [Example 40, 3-Amino-2-{4-[2-(4-chloro-2-fluoro-phenoxy)-ethoxy]-benzyl}-1-(6-trifluoromethyl-3,4-dihydro-2H-quinolin-1-yl)-propan-1-one hydrochloride]",inhibition at 0.1 µM,compound concentration 0.1 μM,38.9%
